The numbers were not newly measured in patent publication US12304932B2, “PACAP stabilized peptide” (SENJU PHARMACEUTICAL CO., LTD., priority 2017, dated 2025), which cites them from elsewhere.

In this data set the target is T1, PAC1 receptor (PAC1R) (Homo sapiens, UniProt P41586).
T1 sequence (P41586 21-468): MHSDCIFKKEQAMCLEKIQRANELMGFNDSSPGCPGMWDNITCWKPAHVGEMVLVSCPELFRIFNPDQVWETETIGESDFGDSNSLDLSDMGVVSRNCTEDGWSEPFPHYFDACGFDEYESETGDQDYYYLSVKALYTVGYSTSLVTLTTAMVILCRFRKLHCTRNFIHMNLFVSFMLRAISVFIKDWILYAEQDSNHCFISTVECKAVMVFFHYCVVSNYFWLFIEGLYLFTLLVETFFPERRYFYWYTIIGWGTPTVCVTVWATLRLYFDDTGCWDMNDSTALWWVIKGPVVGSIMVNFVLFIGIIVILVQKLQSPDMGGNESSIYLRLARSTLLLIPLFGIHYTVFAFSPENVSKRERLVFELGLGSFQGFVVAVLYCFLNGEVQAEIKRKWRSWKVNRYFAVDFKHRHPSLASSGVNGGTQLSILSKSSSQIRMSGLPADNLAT
Conditions: background statement; cited from earlier work.

As for “Pituitary adenylate cyclase-activating polypeptide [PACAP]”, the “affinity of PAC1R for PACAP relative to its affinity for VIP” value is recorded as “more than 1000 times”.
